{"source": "patent US8865909B2", "about": "“Anti-biofilm agents” (Yissum Research Development Company of the Hebrew …, priority 2008, dated 2014)", "key": {"[1]": {"system": "Vero cells", "assay": "Vero cells detachment assay (96-well polystyrene plate, XTT)", "type": "cell-based", "procedure": "Vero cells (0.1 ml, 1.6×10^6 cells/ml) were plated in each well of flat 96-wells polystyrene plate (Nunc), and incubated overnight at 37° C. and 5% CO2. The cells were then incubated with various concentrations of the exemplary tested ABF agent TZD10. At the indicated time intervals, the cells were washed and re-suspended in fresh medium. XTT (2,3-bis-(2-methoxy-4-nitro-5-sulfophenyl)-2H-tetrazolium-5-carboxanilide) analysis was performed to determine the viability of the attached cells."}, "[2]": {"system": "V. harveyi biofilm", "assay": "Quorum sensing (luminescence) in mature biofilm", "type": "cell-based", "design": "reduction of QS: dose or concentration left out as unconfirmed", "details": "for reduction of QSI: maximal tested concentration", "procedure": "The working protocol for the biofilm disruption assays were conducted as follows. The tested V. harveyi strains (BB120, BB721, BB170, BB886) were grown to cell density of 1.5-2.5×10^9 CFU/ml (15-16 hrs) in AB medium at 30° C. with constant shaking and the suspension was diluted (1:5,000) in fresh AB medium. Aliquot of the suspension (200 μl) was added to each well in a white 96-well plate (NUNC) and incubated for 18 hours at 30° C. without shaking. The formed biofilm was carefully washed twice with saline. Fresh AB medium containing the exemplary ABF agent at the various tested concentrations, and either 10% (v/v) spent medium of V. harveyi MM30 (containing AI-1) or 10% (v/v) spent medium of V. harveyi BB152 (containing AI-2) were added, for further 18 hours of incubation as described above. Each sample was also tested without the spent medium as control to examine self induction. Positive and negative controls were included as described above. Each sample was tested in three separate biological experiments in triplicate samples. Luminescence was calculated as the AUC using the trapezoid rule."}}, "data": [{"smiles": "CCCCCCCCC/C=C1\\SC(=O)NC1=O", "note": "[TZD10, (Z)-5-decylidenethiazolidine-2,4-dione]", "values": [{"measurement": "cell viability after detachment assay", "setting": "[1]; 50 μg/ml, overnight incubation", "result": "most of the cells are still viable"}, {"measurement": "cell detachment", "setting": "[1]; 100 μg/ml, 30 minutes", "result": "most of the cells were detached"}, {"measurement": "cell detachment", "setting": "[1]; 200 μg/ml, 5 minutes", "result": "most of the cells were detached"}, {"measurement": "reduction of QSI activity", "setting": "[2]; AI-1 spent medium, 0.200 μM, BB886", "result": 39, "unit": "%"}, {"measurement": "reduction of QSI activity", "setting": "[2]; AI-1 spent medium, 0.200 μM, wild-type", "result": 62, "unit": "%"}, {"measurement": "reduction of QS activity", "setting": "[2]; AI-1 spent medium, 2 μM, BB886", "result": 10, "unit": "%"}, {"measurement": "reduction of QS activity", "setting": "[2]; AI-1 spent medium, 2 μM, wild type BB120", "result": 18, "unit": "%"}, {"measurement": "change in QSI", "setting": "[2]; AI-2 spent medium, 2 μM, BB170", "result": "minor increase"}, {"measurement": "reduction of QSI activity", "setting": "[2]; AI-2 spent medium, 2 μM, BB721 (LuxO null)", "result": 25, "unit": "%"}, {"measurement": "change in QSI", "setting": "[2]; AI-2 spent medium, 2 μM, wild-type BB120", "result": "minor increase"}, {"measurement": "reduction of QSI", "setting": "[2]; AI-2 spent medium, BB170", "result": 44, "unit": "%"}, {"measurement": "reduction of QSI", "setting": "[2]; AI-2 spent medium, BB721", "result": 72, "unit": "%"}, {"measurement": "reduction of QSI", "setting": "[2]; AI-2 spent medium, wild-type", "result": 35, "unit": "%"}, {"measurement": "QS inhibition versus concentration", "setting": "[2]; all tested strains, mature biofilm", "result": "positive dose response"}, {"measurement": "effect on QS", "setting": "[2]; no AI-1 nor AI-2, BB170, 2 μM", "result": "no effect"}, {"measurement": "reduction of QS", "setting": "[2]; no AI-1 nor AI-2, BB170, highest tested concentration", "result": 62, "unit": "%"}, {"measurement": "reduction of QSI activity", "setting": "[2]; no AI-1 nor AI-2, BB721, 2 μM", "result": 38, "unit": "%"}, {"measurement": "reduction of QSI activity", "setting": "[2]; no AI-1 nor AI-2, BB721, 20 μM", "result": 63, "unit": "%"}, {"measurement": "reduction of QSI activity", "setting": "[2]; no AI-1 nor AI-2, BB721, 200 μM", "result": 79, "unit": "%"}, {"measurement": "reduction of QSI activity", "setting": "[2]; no AI-1 nor AI-2, BB886, 2 μM", "result": 30, "unit": "%"}, {"measurement": "reduction of QSI activity", "setting": "[2]; no AI-1 nor AI-2, BB886, 200 μM", "result": 40, "unit": "%"}]}]}
